# Where two headings read alike, the source gives them in different places.
# Tests used:
# [1] = Intrinsic clearance, substrate depletion approach; assay type: in vitro ADME, human; settings: human, human liver microsomes, pH 7.4; HLM, 1 µmol/L substrate
# Method: (§1) The generic conditions were previously described by Masimirembwa and co‐workers. ^24 , ^25 Each reaction mixture consisted of substrate incubated with appropriate enzyme, substrate, and NADPH in potassium phosphate buffer pH 7.4 in a final volume of 200 µL. The substrate was diluted to 40% ACN so that the percent organic component in the final solution was maintained at 1%. The reactions were quenched with 3 volumes of stop solution containing ACN and 0.8% formic acid at 0, 5, 10, 20, 30, 40, and 60 minutes. This was followed by centrifugation at 4500 g for 20 minutes. An aliquot (50 µL) supernatant was collected and diluted (1:1) in water prior to LC‐MS/MS analysis.
# (§2) Each reaction was monitored over 7 time points.
# (§3) The well‐stirred model was used to estimate the hepatic clearance (CLH) due to metabolism.
# HLM = test: Intrinsic clearance, substrate depletion approach; assay type: in vitro ADME, human; settings: HLM, substrate depletion
# Method: as §1, §2, §3
# CYP1A2 = test: CYP selective diagnostic inhibition studies in HLM, furafylline; assay type: in vitro ADME, human; settings: furafylline 10 µmol/L
# Method: (§4) Reactions were carried out in triplicate in 96 well plates. Each reaction was measured at 2 time points, that is at 0 and 30 minutes. […] Furafylline, KTZ, ticlopidine, and quinidine were used as diagnostic inhibitors for CYP 1A2, 3A4/5, 2C19 and 2D6, respectively. The reactions were initiated by addition of NADPH after a pre‐incubation of 5 minutes at 37°C. All reactions were terminated by the addition of 150 µL ice‐cold ACN. Internal standard (0.2 µmol/L DPZ) was added to ACN prior to termination of the assay. This was followed by centrifugation at 4500 g for 20 minutes. An aliquot (50 µL) supernatant was collected and 5 µL was injected and analyzed by liquid chromatography/tandem mass spectrometry (LC/MS/MS). The percent effect of each inhibitor was the estimated contribution of the inhibited CYP calculated using the relationship below: %contribution=amount remaining with inhibitor‐amount remaining without inhibitor/amount remaining without inhibitor×100.
# [2] = Simcyp prediction of total hepatic clearance; parameters: species or system human
# Method: The clearance of the incubation mixture was expressed as μL/min/pmol for rCYP.
# as §3
# [3] = PZQ-ketoconazole DDI pharmacokinetic study in healthy volunteers; assay type: in vivo, human; settings: for AUC(0-inf) / AUC / CL/F / k el / half-life / Tmax / Vd/F: male, human, plasma
# Method: Plasma samples were obtained from the AiBST biobank. […] Each participant served as their own control. Each participant provided written informed consent to take part in the study and the study was carried out according to Helsinki Declaration of 1975, as revised in 2008. The study was approved by the Medical Research Council of Zimbabwe (MRCZ) and the Medicines Controls Authority of Zimbabwe (MCAZ). […] The samples were vortexed for 30 seconds and left under gentle agitation for 25 minutes. […] From the supernatant, 20 μL was injected onto the chiral HPLC system for analysis. […] Detection was done using a UV diode array detector at 210 nm. […] The data were gathered and processed using Agilent OpenLab CDS for Chemstation software version 1.9. Linear calibration curves were plotted as concentration vs peak area ratio for analyte to IS with no weighting. […] The pharmacokinetic (PK) analysis was performed using the WinNonlin program, version 8.2 (Pharsight Corp). […] A non-compartmental approach was used for curve plotting and parameter calculation. The area under the curve (AUC) from time 0 to the last sampling time point (AUCt) was computed using the log-linear trapezoidal rule. The linear trapezoidal rule was used for the ascending part of the PK curve, while the log trapezoidal rule was used for the descending part of the graph. The AUC extrapolated to infinite time was calculated as AUC∞ = AUCt + Ct/K el where Ct is the concentration of the last sample taken and K el is the terminal elimination rate constant. The terminal elimination rate constant K el was determined by least squares regression analysis in the terminal phase of the semi log concentration-time curve. […] Statistical analysis was performed using the GraFit software (version 3.0, Erithacus Software Limited). […] Analysis of variance (ANOVA) was performed on the AUC and C max after transformation of the data to their natural logarithmic (ln) values.
# CYP2D6 = CYP2D6 (Homo sapiens, UniProt P10635); test: in vitro; settings: recombinant CYP2D6, pH 7.4
# CYP2D6, sequence (P10635 whole entry): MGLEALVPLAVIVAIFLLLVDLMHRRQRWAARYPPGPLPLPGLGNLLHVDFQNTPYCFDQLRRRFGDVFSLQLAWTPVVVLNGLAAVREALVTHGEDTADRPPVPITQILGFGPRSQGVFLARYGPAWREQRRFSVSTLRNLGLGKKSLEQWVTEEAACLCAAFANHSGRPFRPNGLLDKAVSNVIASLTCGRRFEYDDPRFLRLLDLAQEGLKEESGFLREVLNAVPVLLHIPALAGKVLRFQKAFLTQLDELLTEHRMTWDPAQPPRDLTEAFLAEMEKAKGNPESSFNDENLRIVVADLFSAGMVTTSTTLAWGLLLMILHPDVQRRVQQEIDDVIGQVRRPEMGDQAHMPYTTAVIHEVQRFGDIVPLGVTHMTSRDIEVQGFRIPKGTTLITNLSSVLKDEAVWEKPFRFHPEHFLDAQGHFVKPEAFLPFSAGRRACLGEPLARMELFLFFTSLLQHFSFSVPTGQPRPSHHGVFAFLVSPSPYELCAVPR
# CYP3A4/5 = test: CYP selective diagnostic inhibition studies in HLM, ketoconazole; assay type: in vitro ADME, human; settings: ketoconazole 10 µmol/L
# Method: as §4
# [4] = PZQ + ketoconazole vs PZQ alone
# [5] = PZQ + ketoconazole vs PZQ alone, listed as S‐Praziquantel
# [6] = single oral 20 mg/kg PZQ alone, n = 9, listed as S‐Praziquantel, 20 mg/kg
structure (smiles),measurement,setting,value
"O=C(C1CCCCC1)N1CC(=O)N2CCc3ccccc3[C@H]2C1 [S‐PZQ, S‐Praziquantel]",half-life at 1 µmol/L,[1],0.492 h
same,"Predicted CLuH,int",HLM,97.50 mL/min/kg
same,Predicted CLH,HLM; well‐stirred model,10.78 mL/min/kg
same,Contribution of CYP1A2,CYP1A2,27%
same,Predicted total CLH (Simcyp),[2]; metabolite formation assay,10.144 mL/min/kg
same,Predicted total CLH (Simcyp),[2]; substrate depletion assay,6.265 mL/min/kg
same,"Clearance/F, treatment mean (SD)","[3]; 20 mg/kg PZQ plus 200 mg ketoconazole, n = 9",211.5 (74.47) L/h
same,"AUCinf, difference observed %",[3]; [4],68%
same,"AUCt0‐tlast, difference observed %",[3]; [4],56.09%
same,"C max, difference observed %",[3]; [4],107.11%
same,"Clearance/F, difference observed %",[3]; [4],−37.81%
same,"Half life, difference observed %",[3]; [4],31.52%
same,"AUCinf, difference observed %",[3]; [5],67.71%
same,"C max, difference observed %",[3]; [5],107.1%
same,AUC(0-inf),"[3]; oral, 20 mg/kg, 20 mg/kg PZQ plus 200 mg ketoconazole, n = 9, read-out: AUCinf, treatment geo mean",5960 ng·h/mL
same,AUC(0-inf),"[3]; oral, 20 mg/kg, 20 mg/kg PZQ plus 200 mg ketoconazole, n = 9, read-out: AUCinf, treatment mean (SD)",6460 ng·h/mL
same,AUC,"[3]; oral, 20 mg/kg, 20 mg/kg PZQ plus 200 mg ketoconazole, n = 9, read-out: AUCt0‐tlast, treatment geo mean",4680 ng·h/mL
same,AUC,"[3]; oral, 20 mg/kg, 20 mg/kg PZQ plus 200 mg ketoconazole, n = 9, read-out: AUCt0‐tlast, treatment mean (SD)",4910 ng·h/mL
same,CL/F,"[3]; oral, 20 mg/kg, 20 mg/kg PZQ plus 200 mg ketoconazole, n = 9, read-out: Clearance/F, treatment geo mean (converted)",3340 mL/min
same,CL/F,"[3]; oral, 20 mg/kg, 20 mg/kg PZQ plus 200 mg ketoconazole, n = 9, read-out: Clearance/F, treatment mean (SD) (converted)",3530 mL/min
same,k el,"[3]; oral, 20 mg/kg, 20 mg/kg PZQ plus 200 mg ketoconazole, n = 9, read-out: Elimination rate constant, treatment geo mean (converted)",6.11e-05 s⁻¹
same,k el,"[3]; oral, 20 mg/kg, 20 mg/kg PZQ plus 200 mg ketoconazole, n = 9, read-out: Elimination rate constant, treatment mean (SD) (converted)",6.94e-05 s⁻¹
same,half-life,"[3]; oral, 20 mg/kg, 20 mg/kg PZQ plus 200 mg ketoconazole, n = 9, read-out: Half life, treatment geo mean (converted)",3.17 h
same,half-life,"[3]; oral, 20 mg/kg, 20 mg/kg PZQ plus 200 mg ketoconazole, n = 9, read-out: Half life, treatment mean (SD) (converted)",3.63 h
same,Tmax,"[3]; oral, 20 mg/kg, 20 mg/kg PZQ plus 200 mg ketoconazole, n = 9, read-out: T max, treatment geo mean",2.35 h
same,Tmax,"[3]; oral, 20 mg/kg, 20 mg/kg PZQ plus 200 mg ketoconazole, n = 9, read-out: T max, treatment mean (SD)",2.44 h
same,Vd/F,"[3]; oral, 20 mg/kg, 20 mg/kg PZQ plus 200 mg ketoconazole, n = 9, read-out: V d/F, treatment geo mean",915 L
same,Vd/F,"[3]; oral, 20 mg/kg, 20 mg/kg PZQ plus 200 mg ketoconazole, n = 9, read-out: V d/F, treatment mean (SD)",967 L
same,AUC,"[3]; oral, 20 mg/kg, AUC, PZQ alone",3850 ± 1430 ng·h/mL
same,AUC,"[3]; oral, 20 mg/kg, read-out: AUC from the in vivo pharmacokinetic study",3300 ng·h/mL
same,AUC,"[3]; oral, AUC, PZQ + KTZ",6460 ± 3100 ng·h/mL
same,AUC(0-inf),"[3]; po, 20 mg/kg, single oral 20 mg/kg PZQ alone, n = 9, read-out: AUCinf, reference geo mean",3610 ng·h/mL
same,AUC(0-inf),"[3]; po, 20 mg/kg, single oral 20 mg/kg PZQ alone, n = 9, read-out: AUCinf, reference mean (SD)",3850 ng·h/mL
same,AUC,"[3]; po, 20 mg/kg, single oral 20 mg/kg PZQ alone, n = 9, read-out: AUCt0‐tlast, reference geo mean",2970 ng·h/mL
same,AUC,"[3]; po, 20 mg/kg, single oral 20 mg/kg PZQ alone, n = 9, read-out: AUCt0‐tlast, reference mean (SD)",3150 ng·h/mL
same,CL/F,"[3]; po, 20 mg/kg, single oral 20 mg/kg PZQ alone, n = 9, read-out: Clearance/F, reference geo mean (converted)",5480 mL/min
same,CL/F,"[3]; po, 20 mg/kg, single oral 20 mg/kg PZQ alone, n = 9, read-out: Clearance/F, reference mean (SD) (converted)",5670 mL/min
same,k el,"[3]; po, 20 mg/kg, single oral 20 mg/kg PZQ alone, n = 9, read-out: Elimination rate constant, reference geo mean (converted)",8.33e-05 s⁻¹
same,k el,"[3]; po, 20 mg/kg, single oral 20 mg/kg PZQ alone, n = 9, read-out: Elimination rate constant, reference mean (SD) (converted)",0.0001 s⁻¹
same,half-life,"[3]; po, 20 mg/kg, single oral 20 mg/kg PZQ alone, n = 9, read-out: Half life, reference geo mean (converted)",2.3 h
same,half-life,"[3]; po, 20 mg/kg, single oral 20 mg/kg PZQ alone, n = 9, read-out: Half life, reference mean (SD) (converted)",2.76 h
same,Tmax,"[3]; po, 20 mg/kg, single oral 20 mg/kg PZQ alone, n = 9, read-out: T max, reference geo mean",2.96 h
same,Tmax,"[3]; po, 20 mg/kg, single oral 20 mg/kg PZQ alone, n = 9, read-out: T max, reference mean (SD)",3 h
same,Vd/F,"[3]; po, 20 mg/kg, single oral 20 mg/kg PZQ alone, n = 9, read-out: V d/F, reference geo mean",1090 L
same,Vd/F,"[3]; po, 20 mg/kg, single oral 20 mg/kg PZQ alone, n = 9, read-out: V d/F, reference mean (SD)",1200 L
same,"Clearance/F, reference mean (SD)","[3]; single oral 20 mg/kg PZQ alone, n = 9, 20 mg/kg",340 ± 97 L/h
same,"C max, reference mean (SD)",[3]; [6],782.9 (171.7) ng/mL
same,"Clearance/F, reference mean (SD)",[3]; [6],340.1 (96.37) L/h
same,half-life at 1 µmol/L,CYP2D6,0.755 h
same,Contribution of CYP3A4/5,CYP3A4/5,131%

# Reference: article PMC7376644 (Pharmacology Research & Perspectives, 2020)
